# Results published in the NIST ThermoML archive (doi:10.1016/j.jct.2007.03.002).
# Values joined by “and” are separate entries in the source; they are usually repeats but may differ in a detail not shown here. Identical values can stand only once. Numbers after ± are expanded uncertainties.
# Key:
# [1] = Crystal; for Normal melting temperature: DTA; for vapor or sublimation pressure: Calculated from knudsen effusion weight loss
# [2] = Molar enthalpy of transition or fusion; details: Crystal; DSC
# [3] = molar enthalpy of vaporization or sublimation; details: 298.15 K; Crystal; Static calorimetry
# [4] = molar heat capacity at constant pressure; details: 298.15 K; 101.33 kPa; Crystal; Drop calorimetry
"mass density ([1]; 298.15 K, 101.33 kPa, mass and size of pellet) [kg/m3]",Normal melting temperature [1] [°C],Molar enthalpy of transition or fusion [2] [kcal/mol],molar enthalpy [3] [kcal/mol],molar heat capacity at constant pressure [4] [J/K/mol],vapor or sublimation pressure ([1]; 316 K) [kPa],SMILES,vapor or sublimation pressure ([1]; 313 K),vapor or sublimation pressure ([1]; 319 K),vapor or sublimation pressure ([1]; 322 K)
1390 ± 360,100.6 ± 0.7,6.45 ± 0.143,25.6 ± 0.86,256.08 ± 66,,OCc1ccc(-c2ccccc2)cc1 [4-biphenylmethanol],,,
,49.2 ± 0.7,4.71 ± 0.12,25.6 ± 0.311,268.98 ± 22,0.0001736 ± 5.2e-05,OCc1ccccc1-c1ccccc1 [2-biphenylmethanol],0.0001171 ± 3.5e-05 kPa and 0.0001179 ± 3.6e-05 kPa,0.0002555 ± 7.7e-05 kPa and 0.0002537 ± 7.7e-05 kPa,0.0003732 ± 0.00011 kPa and 0.0003682 ± 0.00011 kPa
